Laboratory results taken from publication PMC11189555, “Aryl amino acetamides prevent Plasmodium falciparum ring development via targeting the lipid-transfer protein PfSTART1” (Nature Communications, 2024).
Values joined by “and” are separate entries in the source; they are usually repeats but may differ in a detail not shown here. Equal entries are not always repeated.

Test system: 3D7, SLI- and CR- WT, N309K, N330K parasites
Assay: Parasite growth over 72 h in the presence of GlcN (LDH)
Type: cell-based, Plasmodium falciparum
Settings: for Growth over 72 h, 0.25 mM / 0 mM / Growth over 72 h, 2.5 mM / 0 mM: biological replicates 1-4; for Growth over 72 h (mean of raw readings) / Growth over 72 h normalised to 0 mM GlcN (= 100): biological replicates 1-3; for Growth over 72 h (raw reading): biological replicates 1-3, DMSO data of M833 and W991 sets
Experimental: thereafter called SLI-WT, SLI-N309K and SLI-N330K). gDNA was extracted and a PCR was conducted to check for correct integration using primers START_5’UTR.F and START_Seq.R (Table S2); the same PCR on 3D7 gDNA was used as a control, as no bands should be observed in the 3D7 samples. (B) The sequencing of the PCR […]
and that SLI-N309K and SLI-N330K contain the correct mutations. (C) Growth of 3D7, SLI-WT, -N309K or -N330K over 72 h in the presence of 0, 0.25 or 2.5 mM GlcN was measured with an LDH assay. Growth was normalised to the 0 mM GlcN condition. n=4 biological replicates. Ordinary one-way ANOVA with Dunnett’s multiple comparison test (comparison to the 0 mM condition). **: p<0.005. ***: p<0.0005. ****: p<0.0001. (D) Similar to SLI parasites, CRISPR transfectant parasites were cloned:
CR-WT clone D2, CR-N309K clone C10 and CR-N330K clone B2, thereafter called CR-WT, CR-N309K and CR-N330K. A PCR was conducted to check for correct integration using primers START_5’UTR.F and START_IntR1; 3D7 gDNA was used […]
wild-type version of pfstart1, and that CR-N309K and CR-N330K contain the correct mutations. (F) Growth of 3D7, CR-WT, -N309K or -N330K over 72 h in the presence of 0, 0.25 or 2.5 mM GlcN was measured by LDH assay (same as (C); n=6 biological replicates). Source data are provided as a Source Data file. […]
and compound 4. Note that M-833 was first purchased from MolPort (MolPort -002-267-916) then made in-house at WEHI: the differences observed in EC50s across experiments are attributed to the different batches of M -833. For some experiments, 0, 0.25 or 2.5 mM of glucosamine (GlcN) was also added. Experiments were set up in technical duplicates or triplicates. Following a freeze -thaw cycle, lactate dehydrogenase (LDH) activity was assessed as an indicator of parasite growt h 5. 30 μL of parasite culture was incubated for 30 min in the dark with 75 μL Malstat mixture (0.1 M Tris pH 9.0, 20 g/L lactic acid, pH 7.5, 0.2% Triton-X100, 0.5 g/L acetylpyridine adenine dinucleotide (APAD, Sigma), 200 μg/mL nitroblue tetrazolium (NBT; Sigma), 1 μg/mL phenozine ethosulfate (PES; Sigma)). Absorbance was then measured at 650 nm, transformed using the formula below, plotted against the logarithm of the concentrations, and a non-linear regression (log(inhibitor) vs. response, variable slope) was calculated using GraphPad Prism to assess the half-inhibitory […]
Growth inhibition % = (1 − average(sample)− average(uRBC)) ∗ 100 […]
The DMSO samples were also used to assess growth of parasite in the presence of 0.25 and 2.5 mM GlcN (normalised by DMSO in 0 mM GlcN). […]

[1] = CR-N309K parasites, 0.25 mM GlcN
[2] = CR-N309K parasites, 2.5 mM GlcN
[3] = CR-N330K parasites, 0.25 mM GlcN
[4] = CR-N330K parasites, 2.5 mM GlcN

For `N[C@H]1C(O)O[C@H](CO)[C@@H](O)[C@@H]1O` (some centres unmarked) [GlcN, glucosamine], the “Growth over 72 h, 0.25 mM / 0 mM” value (3D7, 0.25 mM GlcN) was 98.6386 and 100.075 and 99.6504 and 92.7264, the “Growth over 72 h, 2.5 mM / 0 mM” value (3D7, 2.5 mM GlcN) was 77.3282 and 91.4546 and 81.2488 and 87.4334 and the reduced growth (3D7, 2.5 mM GlcN, 72 h) was ~ 5%. The “Growth over 72 h (mean of raw readings)” value (3D7 parasites, 0.25 mM GlcN) was 0.1623 and 0.1668 and 0.4453 and 0.6687 and 0.4936 and 0.5657, the “Growth over 72 h normalised to 0 mM GlcN (= 100)” value (“Growth over 72 h normalised” for short) (3D7 parasites, 0.25 mM GlcN) was 99.2357 and 96.4441 and 83.2336 and 124.534 and 89.0493 and 116.399 and the “Growth over 72 h (raw reading)” value (3D7 parasites, 0.25 mM GlcN) was 0.1683 and 0.1751 and 0.4506 and 0.6702 and 0.5044 and 0.558 and 0.1563 and 0.1585 and 0.44 and 0.6673 and 0.4828 and 0.5734. For the same molecule, the “Growth over 72 h (mean of raw readings)” value (3D7 parasites, 2.5 mM GlcN) was 0.1303 and 0.133 and 0.3936 and 0.3428 and 0.669 and 0.5661, the “Growth over 72 h normalised” value (3D7 parasites, 2.5 mM GlcN) was 79.6393 and 76.9008 and 73.5607 and 61.8528 and 124.572 and 116.481 and the “Growth over 72 h (raw reading)” value (3D7 parasites, 2.5 mM GlcN) was 0.137 and 0.138 and 0.4268 and 0.3683 and 0.6835 and 0.563 and 0.1235 and 0.128 and 0.3603 and 0.3174 and 0.6544 and 0.5692. The “Growth over 72 h (mean of raw readings)” value [1] was 0.127 and 0.1406 and 0.5399 and 0.6825 and 0.5806 and 0.5768, the “Growth over 72 h normalised” value [1] was 83.6627 and 84.6177 and 96.1271 and 111.164 and 88.2706 and 96.8194 and the “Growth over 72 h (raw reading)” value [1] was 0.13 and 0.1405 and 0.5297 and 0.694 and 0.5709 and 0.5788 and 0.124 and 0.1406 and 0.55 and 0.6711 and 0.5903 and 0.5749. The “Growth over 72 h (mean of raw readings)” value [2] was 0.0842 and 0.08195 and 0.3029 and 0.2482 and 0.3611 and 0.3044, the “Growth over 72 h normalised” value [2] was 55.4677 and 49.3377 and 53.9263 and 37.7271 and 58.8111 and 51.0826 and the “Growth over 72 h (raw reading)” value [2] was 0.0834 (2×) and 0.3049 and 0.2428 and 0.3713 and 0.3087 and 0.085 and 0.0805 and 0.3008 and 0.2535 and 0.3509 and 0.3. For the same molecule, the “growth less than in the absence of GlcN” value (CR-N309K, 2.5 mM GlcN, 72 h) was 50%, the “Growth over 72 h (mean of raw readings)” value [3] was 0.2349 and 0.2489 and 0.3654 and 0.7776 and 0.3572 and 0.7298 and the “Growth over 72 h normalised” value [3] was 94.757 and 83.1329 and 83.9922 and 102.755 and 71.8539 and 97.5734. For the same molecule, the “Growth over 72 h (raw reading)” value [3] was 0.2498 and 0.2614 and 0.3895 and 0.7636 and 0.4102 and 0.7252 and 0.2201 and 0.2364 and 0.3414 and 0.7917 and 0.3041 and 0.7344, the “Growth over 72 h (mean of raw readings)” value [4] was 0.1315 and 0.1328 and 0.1893 and 0.172 and 0.7048 and 0.6593 and the “Growth over 72 h normalised” value [4] was 53.0349 and 44.3554 and 43.5072 and 34.6042 and 93.1356 and 88.1543. The “Growth over 72 h (raw reading)” value [4] was 0.1385 and 0.1375 and 0.1953 and 0.1767 and 0.7177 and 0.6721 and 0.1245 and 0.1281 and 0.1833 and 0.1673 and 0.692 and 0.6466, the “Growth over 72 h (mean of raw readings)” value (CR-WT parasites, 0.25 mM GlcN) was 0.2131 and 0.2403 and 0.4884 and 0.5805 and 0.5445 and 0.4768 and the “Growth over 72 h normalised” value (CR-WT parasites, 0.25 mM GlcN) was 94.7322 and 91.6651 and 102.262 and 415.2 and 101.567 and 345.382. The “Growth over 72 h (raw reading)” value (CR-WT parasites, 0.25 mM GlcN) was 0.2167 and 0.241 and 0.4948 and 0.5777 and 0.5446 and 0.4838 and 0.2095 and 0.2396 and 0.4819 and 0.5832 and 0.5444 and 0.4698, the “Growth over 72 h (mean of raw readings)” value (CR-WT parasites, 2.5 mM GlcN) was 0.1497 and 0.1625 and 0.3987 and 0.36 and 0.5094 and 0.4461 and the “Growth over 72 h normalised” value (CR-WT parasites, 2.5 mM GlcN) was 66.5703 and 61.9874 and 83.4991 and 67.1517 and 364.413 and 323.18. For the same molecule, the “Growth over 72 h (raw reading)” value (CR-WT parasites, 2.5 mM GlcN) was 0.1508 and 0.1623 and 0.3842 and 0.3527 and 0.5062 and 0.4479 and 0.1487 and 0.1627 and 0.4133 and 0.3673 and 0.5127 and 0.4444, the “Growth over 72 h, 0.25 mM / 0 mM” value (SLI-N309K, 0.25 mM GlcN) was 84.2717 and 93.806 and 99.7943 and 79.4202 and the “Growth over 72 h, 2.5 mM / 0 mM” value (SLI-N309K, 2.5 mM GlcN) was 52.5042 and 74.3497 and 80.6954 and 57.9574. The “Growth over 72 h, 0.25 mM / 0 mM” value (SLI-N330K, 0.25 mM GlcN) was 88.793 and 84.0431 and 73.2682 and 86.1624, the “Growth over 72 h, 2.5 mM / 0 mM” value (SLI-N330K, 2.5 mM GlcN) was 52.5716 and 59.0221 and 51.4095 and 62.9405 and the “Growth over 72 h, 0.25 mM / 0 mM” value (SLI-WT, 0.25 mM GlcN) was 108.267 and 89.5536 and 80.5452 and 87.3943. For the same molecule, the “Growth over 72 h, 2.5 mM / 0 mM” value (SLI-WT, 2.5 mM GlcN) was 78.3352 and 62.7379 and 46.4436 and 59.8798 and the “growth less than in the absence of GlcN” value (most SLI- and CR- lines, 2.5 mM GlcN, 72 h) was “approximately 40%”.
